# Test results published in paper PMC5309220, “Screening for Small Molecule Inhibitors of Statin-Induced APP C-terminal Toxic Fragment Production” (Frontiers in Pharmacology, 2017).
# pIC50: −log10 of the molar value. Where two headings read alike, the source gives them in different places.
# What was measured:
# [1] = system: cerivastatin-induced APPΔC31 production in CHO-7W cells; assay: APPΔC31 ELISA validation assay, cerivastatin-induced; assay type: cell-based, Chinese hamster; conditions: 24 h; for inhibition of APPΔC31 production (in words) / pIC50: CHO-7W; for inhibition of APPΔC31 production (in words): thapsigargin 0.033-0.3 μM, 2,5-Di-tert-butylhydroquinone 1 and 10 μM; for APPΔC31 Inh. (mean %): CHO-7W cells, test concentration not given; for pIC50: Cricetulus griseus, read-out: IC50 (E), APPΔC31 inhibition
# Procedure: The APPΔC31 ELISA developed in partnership with Enzo Life Sciences (ADI-900-227) follows a standard sandwich ELISA design wherein a monoclonal N-terminal APP-specific antibody is used to coat the wells of the microtiter plate (capture antibody) and the anti-APPΔC31 cleavage site-specific polyclonal antibody serves as the detection antibody. An HRP-conjugated secondary antibody is then added and a colorimetric signal generated by enzymatic conversion of the tetramethylbenzidine (TMB) substrate. Protein levels were first determined using a colorimetric coomassie assay (Coomassie Plus, Thermo).
# A subset of hits from our HTS was validated in a secondary assay. […] Thapsigargin also acts as a sarco/endoplasmic reticulum calcium ATPase (SERCA) inhibitor. Therefore, another SERCA inhibitor, 2,5-Di-tert-butylhydroquinone, was also added to the testing. In this secondary assay, CHO-7W cells were cultured as described above and plated into 24-well dishes at ∼200K/well. […] These hits were selected for their potency in primary screen, their structural features, their known activities, and availability of compound for additional testing. There were cerivastatin-only (negative control), + QVD-OPh (positive control), and for viability, vehicle-only (negative) controls. Cells were harvested by removing the media to a tube, adding […] trypsin to detach cells then neutralizing with media. […] Cells were centrifuged at 5000 rpm (2300 × g) for 5 min. Cell pellets were frozen until use. Forty μL cold RIPA buffer plus complete protease inhibitors (Roche) was added to each pellet and the pellets were reconstituted by pipetting up and down, incubating on ice for 30 min, vortexing, and centrifugation as above. Cell lysate supernatants were then assayed by APPΔC31 ELISA as described above. For most compounds, multiple/repeat studies were performed and two wells used for each condition. Statistical comparison was performed using one-way ANOVA for multiple comparisons, with a Dunnett post hoc test to compare each condition to the control. Further dose-response studies were performed on select compounds.
# CHO-7W cells [2] = conditions: with 10 μM cerivastatin
# [3] = system: APPΔC31 production in CHO-7W cells; assay: Statin induction of APPΔC31, ELISA; assay type: cell-based, Chinese hamster; conditions: 24 h
# Procedure: An HRP-conjugated secondary antibody is then added and a colorimetric signal generated by enzymatic conversion of the tetramethylbenzidine (TMB) substrate. Protein levels were first determined using a colorimetric coomassie assay (Coomassie Plus, Thermo).
# APPΔC31 was determined in cell lysates by ELISA.
# [4] = system: cerivastatin-induced APPΔC31 in CHO-7W cells; assay: APPΔC31 AlphaLISA dose-response, cerivastatin-induced; assay type: cell-based, Chinese hamster; conditions: 24 h; for pIC50: Cricetulus griseus
# Procedure: The APPΔC31 AlphaLISA assay (Figures 2C–E) was run directly in the plate with the cell lysate as described above in “AlphaLISA to detect APPΔC31.” APPΔC31 levels were measured using the Envision plate reader and data were normalized to DMSO (100% APPΔC31 production) and Q-VD-OPh (MP Biomedicals) pan-caspase inhibitor at 30 μM (0%); these controls were present on each plate. In addition, some compounds of interest were further analyzed in a dose-response curve to determine IC50 values.
# The broad-spectrum pan-caspase inhibitor Q-VD-OPh served as the positive control.
# Lysates were prepared and APPΔC31 determined by ELISA. (B) CHO-7W cells were treated with 10 μM cerivastatin plus increasing doses of caspase and MEK inhibitors for 24 h. Lysates were prepared and APPΔC31 determined by AlphaLISA. Click here for additional data file.
# caspase 8 = conditions: potency stated for the inhibitor, no reference given; cited from earlier work
# [5] = PAMPA / immobilized artificial membrane (IAM.PC.DD2) chromatography; assay type: in vitro ADME
# [6] = system: cerivastatin-induced APPΔC31 in CHO-7W cells; assay: APPΔC31 immunoblot of CHO-7W cell lysates; assay type: cell-based, Chinese hamster; conditions: compound at 30 μM, 10 μM cerivastatin, 24 h
# Procedure: For immunoprecipitation, approximately 300 μg cell lysate supernatants were brought to 250 μL with cold RIPA + PI buffer in microfuge tubes. One μL of 6E10 APP antibody (Covance) was added and the mixture was rotated overnight in a cold room. The next day, 25 μL of protein A/G beads (Santa Cruz Biotech) were added and the samples were rotated for 1.5 h in the cold room. The beads were then centrifuged down and washed four times with cold PBS. Forty μL 1x LDS sample buffer + DTT was added to the pellets, which were heated to 70°C for 10 min, vortexed and centrifuged. Supernatants were loaded onto Nupage 4–12% Bis-Tris gels (Life Technologies) for electrophoresis and were then transferred to 0.2 μm PVDF membrane for immunoblotting with the anti-APPΔC31 antibody.
# (A) CHO-7W cells were treated with 10 μM cerivastatin (CS) along with varying concentrations of Q-VD-OPh (QVD) for 24 h. Cell lysates were prepared and immunoprecipitated with anti-APP (6E10) overnight at 4°C and then incubation with Protein A/G beads (Santa Cruz Biotech). The resulting pellets were incubated, electrophoresed using Nupage 4–12% Bis-Tris gels (Life Technologies) and the 0.2 μm PVDF membrane probed with anti-APPΔC31. (B) CHO-7W cells were treated with increasing concentrations of CS or 10 μM CS together with increasing concentrations of 3′-fluorobenzylspiperone maleate (3′-F-Sp) or 30 μM QVD for 24 h. […]
# sAPPα in CHO-7W cultures = assay: sAPPα ELISA in cell media; assay type: cell-based, Chinese hamster; conditions: QVD, Sp, 3′F-Sp at 10, 30, and 30 mM, respectively (so in the source), with 10 μM cerivastatin, 24 h, vs CS alone, n = 2
# Procedure: (§1) In an additional study (Supplementary Figure S5A), measurement of the α secretase fragment of full length (FL) APP – soluble APP alpha (sAPPα) – was performed using cell media by ELISA (IBL). Furthermore, in two studies (Supplementary Figures S5B,C), total protein levels in CHO-7W cell lysates were determined by Coomassie Plus protein assay (Pierce).
# (§2) Supplementary file Data_Sheet_1.docx: FIGURE S5 Effect of lead compounds on protein concentration and sAPPα. […] (B) Total protein from lysates of CHO-7W cells treated with either 30 μM QVD or 10 μM Sp alone for 24 h was similar to the vehicle control (n = 1). (C) Total protein from CHO-7W lysates treated with 10 μM CS alone or in combination with QVD, Sp, or 3′F-Sp at the concentrations shown increased (n = 1). Statistical analysis was performed using one-way ANOVA and Dunnett post-test for comparison to the 10 μM CS control (^∗∗p < 0.001, ^∗∗∗p < 0.0001). Click here for additional data file.
# CHO-7W cells [7] = assay: Total protein in CHO-7W cell lysates (Coomassie Plus); assay type: cell-based, Chinese hamster; conditions: n = 1; for effect on protein concentration in lysates, compound alone (in words): QVD alone at 30 μM, spiperone alone at 10 μM, 24 h, vs vehicle; for effect on total protein concentration with cerivastatin (in words): QVD, spiperone, 3′fluorobenzylspiperone at 30, 10, and 10 μM, respectively, with 10 μM cerivastatin
# Procedure: as §1, §2
# [8] = In vivo pharmacokinetic analysis of spiperone; set-up: species or system mice (C57B6)
# Procedure: As PAMPA is merely a predictive analysis of brain permeability, a pharmacokinetic (PK) study with spiperone was performed. […] Another 5 mice were injected intraperitoneally (IP) at the same dose. One mouse was euthanized from each dosing route group at 1, 2, 4, 6, and 8 h. This is done by ketamine/xylazine over- anesthesia followed by blood collection for plasma isolation by cardiac puncture, and transcardial perfusion of tissue with saline to remove residual blood from the brain. Both plasma and brain tissue were sent to Integrated Analytical Solutions (IAS, Berkeley, CA, USA) for compound level analysis using an LC-MS-MS method.
# [9] = low concentrations (thapsigargin 0.033-0.3 μM, 2,5-Di-tert-butylhydroquinone 1 and 10 μM)
# [10] = (E) ELISA, cerivastatin-induced
# [11] = AlphaLISA dose-response (Figure 5C), cerivastatin-stimulated
# [12] = dose-response curves, 10 μM cerivastatin, AlphaLISA
smiles,measurement,setting,value
"CC(C)(C)c1cc(O)c(C(C)(C)C)cc1O [2,5-Di-tert-butylhydroquinone]",inhibition of APPΔC31 production (in words),[1]; 10 μM cerivastatin,very effective
same,cell survival rescue (in words),CHO-7W cells [2]; [9],highest cell survival
CC(C)c1c(C(=O)Nc2ccccc2)c(-c2ccccc2)c(-c2ccc(F)cc2)n1CC[C@@H](O)C[C@@H](O)CC(=O)O [Atorvastatin],induction of APPΔC31 (in words),"[3]; statins at 1, 5 and 10 μM",much less effective
FC(F)(F)c1cccc(-c2csc(C3COc4ccccc4O3)n2)c1 (centres unmarked) [Caspase Inhibitor X],inhibition of cerivastatin-induced APPΔC31 (in words),"[4]; highest concentration tested (30 μM), 10 μM cerivastatin, AlphaLISA",somewhat effective
same,pIC50,caspase 8,5.57
O=c1c(O)c(-c2ccc(O)cc2)oc2cc(O)cc(O)c12 [Kaempferol],APPΔC31 Inh. (mean %),[1]; 10 μM cerivastatin,65%
same,pIC50,[1]; [10],< 5.00
O=c1[nH]c2ccccc2n1C1CCN(CCCC(c2ccc(F)cc2)c2ccc(F)cc2)CC1 [Pimozide],% Min (APPΔC31 dose-response),[4]; [11],19%
same,pIC50,"[4]; (A) AlphaLISA, cerivastatin-induced, read-out: IC50 (A), APPΔC31 inhibition",5.44
same,KIAM (IAM capacity factor),"[5]; IAM.PC.DD2 column, water/methanol gradient",3.3
same,APPΔC31 Inh. (mean %),[1]; 10 μM cerivastatin,98%
same,cell survival rescue (in words),"CHO-7W cells [2]; at 30 μM, among hits from HTS",greatest cell survival rescue effects
"CC(C)C(NC(=O)c1ccc2ccccc2n1)C(=O)NC(CC(=O)O)C(=O)COc1c(F)cccc1F (centres unmarked) [QVD-OPh, Q-VD-OPh]",% Min (APPΔC31 dose-response),[4]; [11],0%
same,pIC50,"[4]; AlphaLISA dose-response (Figure 5C), cerivastatin-stimulated, read-out: IC50, APPΔC31 inhibition",5.12
same,effect on CS-induced APPΔC31 by immunoblot (in words),[6],eliminated the cerivastatin-induced APPΔC31 increase
same,effect on simvastatin-induced APPΔC31 increase (in words),[3]; 30 μM inhibitor plus 5 μM simvastatin,prevented 5 μM simvastatin-induced APPΔC31 increases
same,APPΔC31 Inh. (mean %),[1]; 10 μM cerivastatin,95%
same,pIC50,"[1]; ELISA, 10 μM cerivastatin",5.12
same,effect on sAPPα (in words),sAPPα in CHO-7W cultures,increased sAPPα
same,"effect on protein concentration in lysates, compound alone (in words)",CHO-7W cells [7],did not lower protein concentration
same,effect on total protein concentration with cerivastatin (in words),CHO-7W cells [7],increased total protein concentration
CO[C@H]1C[C@@H]2CC[C@@H](C)[C@@](O)(O2)C(=O)C(=O)N2CCCC[C@H]2C(=O)O[C@H]([C@H](C)C[C@@H]2CC[C@@H](O)[C@H](OC)C2)CC(=O)[C@H](C)/C=C(\C)[C@@H](O)[C@@H](OC)C(=O)[C@H](C)C[C@H](C)/C=C/C=C/C=C/1C [Rapamycin],APPΔC31 Inh. (mean %),[1]; 10 μM cerivastatin,99%
same,pIC50,[1]; [10],< 5.00
same,cell survival rescue (in words),"CHO-7W cells [2]; at 30 μM, among hits from HTS",greatest cell survival rescue effects
Oc1ccc(-c2nc(-c3ccncc3)c(-c3ccc(F)cc3)[nH]2)cc1 [SB202190],APPΔC31 Inh. (mean %),[1]; 10 μM cerivastatin,58%
same,pIC50,[1]; [10],< 5.00
Cn1cc(C2=C(c3ccc(Cl)cc3Cl)C(=O)NC2=O)c2ccccc21 [SB216763],APPΔC31 Inh. (mean %),[1]; 10 μM cerivastatin,54%
same,pIC50,[1]; [10],< 5.00
N#C/C(=C(/N)Sc1ccc(N)cc1)c1ccccc1C(F)(F)F [SL327],inhibition of cerivastatin-induced APPΔC31 (in words),[4]; [12],ineffective
O=C(CCCN1CCC2(CC1)C(=O)NCN2c1ccccc1)c1ccc(F)cc1 [Spiperone],% Min (APPΔC31 dose-response),[4]; [11],23%
same,BBB Penetration Prediction,"[5]; from KIAM/MW^4 x 10^10, cut-off 0.85",high (If KIAM/MW^4x10^10 > 0.85 the BBB penetration is predicted to be high)
same,effect on sAPPα (in words),sAPPα in CHO-7W cultures,increased sAPPα
same,Kp,"[8]; male, C57B6, brain and plasma, other: subcutaneous and intraperitoneal (both routes), 0.25 mg/mouse, SQ and IP routes, read-out: brain:plasma ratio",~0.5
same,Cmax,"[8]; male, C57B6, brain, mouse, intraperitoneal (IP), 10 mg/kg, n = 1 per time point, read-out: peak brain level (Cmax)",~205 ng/g
same,time of peak brain level,"[8]; mouse, IP injection at 10 mg/kg",1 h
same,time of peak brain level,"[8]; mouse, both the subcutaneous and intraperitoneal routes",1 h
same,peak brain level,"[8]; mouse, subcutaneous, 50 μL of 5 mg/mL in DMSO, n = 1 per time point",~70 ng/g
same,"effect on protein concentration in lysates, compound alone (in words)",CHO-7W cells [7],did not lower protein concentration
same,effect on total protein concentration with cerivastatin (in words),CHO-7W cells [7],increased total protein concentration
same,cell survival rescue (in words),"CHO-7W cells [2]; at 30 μM, among hits from HTS",greatest cell survival rescue effects
CC/C(=C(\c1ccccc1)c1ccc(OCCN(C)C)cc1)c1ccccc1 [Tamoxifen],APPΔC31 Inh. (mean %),[1]; 10 μM cerivastatin,56%
C/C=C(/C)C(=O)O[C@H]1C(C)=C2[C@H]([C@@H]1OC(=O)CCCCCCC)[C@@](C)(OC(C)=O)C[C@H](OC(=O)CCC)[C@@]1(O)[C@H]2OC(=O)[C@@]1(C)O [Thapsigargin],APPΔC31 Inh. (mean %),[1]; 10 μM cerivastatin,97%
same,inhibition of APPΔC31 production (in words),[1]; 10 μM cerivastatin,remarkably potent inhibitor
same,pIC50,[1]; [10],7.11
same,cell survival rescue (in words),CHO-7W cells [2]; [9],highest cell survival
CS/C(N)=C(C#N)/C(C#N)=C(\N)SC [U0124],inhibition of cerivastatin-induced APPΔC31 (in words),[4]; [12],ineffective
N#CC(=C(/N)Sc1ccccc1N)/C(C#N)=C(/N)Sc1ccccc1N [U0126],reduction of APPΔC31,"[4]; from 10 to 50 μM, 10 μM cerivastatin, AlphaLISA",~25%
